In PMC11277489, “Novel Piperazine Derivatives of Vindoline as Anticancer Agents” (International Journal of Molecular Sciences, 2024) one finds activity data, which are given here for six compounds.

Like-named read-outs stand apart in the source and are kept apart here.

For one test, the system named is UO-31. Briefly: NCI60 one-dose screen (10 μM), Renal Cancer. It counts as cell-based. The settings on record: Homo sapiens.
The next test relates to PC-3. Description: NCI60 one-dose screen (10 μM), Prostate Cancer. The following applies: Homo sapiens. The class given is cell-based.
In another test the test system is SK-OV-3. Briefly: NCI60 one-dose screen (10 μM), Ovarian Cancer. The settings on record: Homo sapiens. The class given is cell-based.
In a further test the test system is CAKI-1. Briefly: NCI60 one-dose screen (10 μM), Renal Cancer. It counts as cell-based. The following applies: Homo sapiens.
The next test concerns HOP-92. Description: NCI60 one-dose screen (10 μM), Non-small Cell Lung Cancer. The class given is cell-based. The following applies: Homo sapiens.
Another test relates to EKVX. Described as above. The class given is cell-based. The following applies: Homo sapiens, read-out: Growth percent rate.
Another test concerns BT-549. Briefly: NCI60 one-dose screen (10 μM), Breast Cancer. It counts as cell-based. The following applies: Homo sapiens.
The next test concerns OVCAR-5. Briefly: NCI60 one-dose screen (10 μM), Ovarian Cancer. The class given is cell-based. The following applies: Homo sapiens.
The test system of the next test is MDA-MB-231/ATCC. Briefly: NCI60 one-dose screen (10 μM), Breast Cancer. The class given is cell-based, human. The following applies: Homo sapiens.
The next test relates to NCI-H23. Briefly: NCI60 one-dose screen (10 μM), Non-small Cell Lung Cancer. The settings on record: Homo sapiens. The class given is cell-based.
A further test concerns NCI-H226. The test is described as above. The class given is cell-based. The following applies: Homo sapiens.
For another test, the system named is HCC-2998. Briefly: NCI60 one-dose screen (10 μM), Colon Cancer. The class given is cell-based. The following applies: Homo sapiens.
The subject of the next test is MDA-MB-435. Description: NCI60 one-dose screen (10 μM), Melanoma. It counts as cell-based. The settings on record: Homo sapiens.
For the next test, the system named is NCI/ADR-RES. Briefly: NCI60 one-dose screen (10 μM), Ovarian Cancer. The class given is cell-based. The settings on record: Homo sapiens, read-out: Growth percent rate.
For another test, the system named is MDA-MB-468. Description: NCI60 one-dose screen (10 μM), Breast Cancer. It counts as cell-based. The settings on record: Homo sapiens.
The next test concerns OVCAR-4. Briefly: NCI60 one-dose screen (10 μM), Ovarian Cancer. The class given is cell-based. The following applies: Homo sapiens.
In another test the test system is T-47D. Briefly: NCI60 one-dose screen (10 μM), Breast Cancer. The class given is cell-based. The following applies: Homo sapiens, T47D, read-out: Growth percent rate.
In another test the test system is SR. Description: NCI60 one-dose screen (10 μM), Leukemia. The class given is cell-based. The settings on record: Homo sapiens, read-out: Growth percent rate.
Another test deals with UACC-62. Briefly: NCI60 one-dose screen (10 μM), Melanoma. It counts as cell-based. The following applies: Homo sapiens.
The mark [1] stands for this setting: UO-31, read-out: Growth percent rate.
Setting [2] is: PC-3, read-out: Growth percent rate.
Setting [3] is: SK-OV-3, read-out: Growth percent rate.
The mark [4] stands for this setting: CAKI-1, read-out: Growth percent rate.
The mark [5] stands for this setting: HOP-92, read-out: Growth percent rate.
Setting [6] is: BT-549, read-out: Growth percent rate.
[7] abbreviates: OVCAR-5, read-out: Growth percent rate.
The mark [8] stands for this setting: MDA-MB-231, read-out: Growth percent rate.
[9] abbreviates: NCI-H23, read-out: Growth percent rate.
Setting [10] is: NCI-H226, read-out: Growth percent rate.
Setting [11] is: HCC 2998, read-out: Growth percent rate.
[12] abbreviates: MDA-MB-435, read-out: Growth percent rate.
Setting [13] is: MDA-MB-468, read-out: Growth percent rate.
[14] abbreviates: OVCAR-4, read-out: Growth percent rate.
The mark [15] stands for this setting: UACC-62, read-out: Growth percent rate.
The mark [16] stands for this setting: 10 μM, UO-31, Renal Cancer, read-out: Growth percent rate.
Setting [17] is: 10 μM, PC-3, Prostate Cancer, read-out: Growth percent rate.
[18] abbreviates: 10 μM, SK-OV-3, Ovarian Cancer, read-out: Growth percent rate.
[19] abbreviates: 10 μM, CAKI-1, Renal Cancer, read-out: Growth percent rate.
Where [20] appears, read: 10 μM, HOP-92, Non-small Cell Lung Cancer, read-out: Growth percent rate.
Where [21] appears, read: 10 μM, Non-small Cell Lung Cancer.
Where [22] appears, read: 10 μM, UACC-62, Melanoma, read-out: Growth percent rate.
Setting [23] is: 10 μM, OVCAR-5, Ovarian Cancer, read-out: Growth percent rate.
[24] abbreviates: 10 μM, MDA-MB-231/ATCC, Breast Cancer, read-out: Growth percent rate.
Where [25] appears, read: 10 μM, NCI-H23, Non-small Cell Lung Cancer, read-out: Growth percent rate.
Setting [26] is: 10 μM, HCC-2998, Colon Cancer, read-out: Growth percent rate.
Setting [27] is: 10 μM, MDA-MB-435, Melanoma, read-out: Growth percent rate.
The mark [28] stands for this setting: 10 μM, MDA-MB-468, Breast Cancer, read-out: Growth percent rate.
The mark [29] stands for this setting: 10 μM, OVCAR-4, Ovarian Cancer, read-out: Growth percent rate.
Where [30] appears, read: 10 μM, BT-549, Breast Cancer, read-out: Growth percent rate.
Where [31] appears, read: 10 μM, NCI-H226, Non-small Cell Lung Cancer, read-out: Growth percent rate.

In the case of `CCC12C=CCN3CC[C@@]4(c5ccc(OC)cc5N(C)[C@H]4[C@@](O)(C(=O)OC)[C@@H]1OC(C)=O)[C@@H]32` (stereo partly shown) [Compound 1, vindoline], the activity at 10 µM in the test with UO-31 (setting [1]) is 84.6%; in the test with PC-3 (setting [2]), 98.6%; in the test on SK-OV-3 (setting [3]) it was 102%; with CAKI-1 (setting [4]), 105%; in the test with HOP-92 (setting [5]), 109%; in the test with EKVX, 92%. The activity at 10 µM in the test with BT-549 (setting [6]) was 106%; in the test on OVCAR-5 (setting [7]), 107%; in the test on MDA-MB-231/ATCC (setting [8]), 113%; in the test with NCI-H23 (setting [9]), 95.3%; with NCI-H226 (setting [10]), 92.3%; in the test on HCC-2998 (setting [11]), 101%. Besides, the activity at 10 µM in the test with MDA-MB-435 (setting [12]) is 104%; in the test with NCI/ADR-RES, 107%; with MDA-MB-468 (setting [13]), 134%; in the test with OVCAR-4 (setting [14]) it was 136%.

On to `CC[C@]12C=CCN3CC[C@@]4(c5ccc(OC)cc5N(C)[C@H]4[C@@](O)(C(=O)OC)[C@@H]1OC(=O)CCC(=O)N1CCN(C(=O)c4ccco4)CC1)[C@@H]32` [Compound 32], for which the activity at 10 µM in the test on UO-31 (setting [1]) came to 98.8%; in the test with PC-3 (setting [2]), 90.6%; in the test with T-47D, 92.5%; with SK-OV-3 (setting [3]), 111%; in the test with CAKI-1 (setting [4]), 78.4%; in the test on HOP-92 (setting [5]) it was 92.4%. For the same compound, the activity at 10 µM was found to be 99.4% in the test with EKVX; 117% with SR; 122% in the test on BT-549 (setting [6]); 59.5% in the test with UACC-62 (setting [15]); 105% in the test on OVCAR-5 (setting [7]); 91.1% in the test on MDA-MB-231/ATCC (setting [8]). Besides, the activity at 10 µM in the test with NCI-H23 (setting [9]) was found to be 101%; in the test with NCI-H226 (setting [10]), 115%; in the test with HCC-2998 (setting [11]), 113%; in the test on MDA-MB-435 (setting [12]), 98.2%; in the test on NCI/ADR-RES it was 106%; with MDA-MB-468 (setting [13]), 78%. Also, in the test on OVCAR-4 (setting [14]), the activity at 10 µM was 98.1%.

As to `CCC12C=CCN3CCC4(c5ccc(OC)cc5N(C)C4C(O)(C(=O)OC)C1OC(=O)CCCN1CCN(C)CC1)C32` (stereo not shown) [Compound 3], the activity at 10 µM with UO-31 (setting [16]) was 75.8%; in the test with PC-3 (setting [17]), 92.9%; in the test on T-47D (10 μM, T-47D, Breast Cancer), 90.9%; in the test on SK-OV-3 (setting [18]) it was 93.3%; in the test on CAKI-1 (setting [19]), 54.5%; in the test on HOP-92 (setting [20]), 80.9%. The activity at 10 µM amounted to 96.5% with EKVX (setting [21]); 83.2% with UACC-62 (setting [22]); 96.4% with OVCAR-5 (setting [23]); 80.4% in the test on MDA-MB-231/ATCC (setting [24]); 90% with NCI-H23 (setting [25]); 92.4% with HCC-2998 (setting [26]). The activity at 10 µM in the test on MDA-MB-435 (setting [27]) came to 28.9%; with NCI/ADR-RES (10 μM, Ovarian Cancer), 94.7%; with MDA-MB-468 (setting [28]), 70.5%; in the test on OVCAR-4 (setting [29]) it was 101%.

Take `CC[C@]12C=CCN3CC[C@@]4(c5ccc(OC)cc5N(C)[C@H]4[C@@](O)(C(=O)OC)[C@@H]1OC(=O)CCC(=O)N1CCN(Cc4ccc(F)cc4)CC1)[C@@H]32` [Compound 30]: the activity at 10 µM amounted to 62.3% in the test on UO-31 (setting [16]); 44.5% with PC-3 (setting [17]); 73.8% in the test with T-47D (10 μM, T-47D, Breast Cancer); 103% with SK-OV-3 (setting [18]); 28.1% in the test with CAKI-1 (setting [19]); 66.4% in the test on HOP-92 (setting [20]). The activity at 10 µM with EKVX (setting [21]) was 60.2%; with SR (10 μM, Leukemia), 56.4%; with BT-549 (setting [30]), 98.1%; with UACC-62 (setting [22]), 67.1%; in the test with OVCAR-5 (setting [23]), 96.3%; in the test with MDA-MB-231/ATCC (setting [24]) it was 65.3%. Besides, the activity at 10 µM in the test with NCI-H23 (setting [25]) came to 83.4%; in the test on NCI-H226 (setting [31]) it was 69.9%; in the test with HCC-2998 (setting [26]), 85.3%; in the test with MDA-MB-435 (setting [27]), 85.7%; with NCI/ADR-RES (10 μM, Ovarian Cancer) it was 65.2%; in the test on MDA-MB-468 (setting [28]) it was 1.38%. The activity at 10 µM with OVCAR-4 (setting [29]) is 56.4%.

For `CCC12C=CCN3CCC4(c5ccc(OC)cc5N(C)C4C(O)(C(=O)OC)C1O)C32` (stereo not shown) [Compound 13, 17-desacetylvindoline], the activity at 10 µM in the test with UO-31 (setting [1]) worked out at 87.6%; with PC-3 (setting [2]), 96.5%; with T-47D, 108%; in the test on CAKI-1 (setting [4]), 98.2%; in the test with HOP-92 (setting [5]) it was 88.6%; in the test on EKVX it was 98.9%. The activity at 10 µM in the test with BT-549 (setting [6]) worked out at 101%; in the test on UACC-62 (setting [15]), 90.7%; with OVCAR-5 (setting [7]), 91.2%; in the test with MDA-MB-231/ATCC (setting [8]), 101%; in the test on NCI-H23 (setting [9]), 93%; in the test on NCI-H226 (setting [10]), 88.5%. The activity at 10 µM with HCC-2998 (setting [11]) was determined as 96.8%; with MDA-MB-435 (setting [12]), 89%; in the test with NCI/ADR-RES it was 99.4%; in the test on MDA-MB-468 (setting [13]), 92.2%; with OVCAR-4 (setting [14]), 95.8%.

As to `CCC12C=CCN3CCC4(c5ccc(OC)cc5N(C)C4C(O)(C(=O)OC)C1OC(=O)CCCBr)C32` (stereo not shown) [Compound 14, 17-(O-4-bromobutanoyl)vindoline], the activity at 10 µM in the test on UO-31 (setting [16]) was 82.5%; in the test on PC-3 (setting [17]), 79%; with T-47D (10 μM, T-47D, Breast Cancer) it was 77.2%; with SK-OV-3 (setting [18]), 101%; in the test on CAKI-1 (setting [19]) it was 80.9%; with HOP-92 (setting [20]), 77.6%. For the same compound, the activity at 10 µM in the test with EKVX (setting [21]) turned out to be 91.2%; in the test on SR (10 μM, Leukemia), 98.4%; in the test on BT-549 (setting [30]), 99.1%; in the test with UACC-62 (setting [22]) it was 83.8%; in the test on OVCAR-5 (setting [23]) it was 101%; with MDA-MB-231/ATCC (setting [24]), 90.6%. Moreover, the activity at 10 µM is 93.1% in the test with NCI-H23 (setting [25]); 96% in the test on NCI-H226 (setting [31]); 93.8% in the test on HCC-2998 (setting [26]); 104% in the test on MDA-MB-435 (setting [27]); 89.2% with NCI/ADR-RES (10 μM, Ovarian Cancer); 95.7% in the test on MDA-MB-468 (setting [28]). For the same compound, in the test with OVCAR-4 (setting [29]), the activity at 10 µM was 83.9%.
